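How tested: cells in 96-well plates exposed to compound for 48 hours at five concentrations. GI50 is the concentration that inhibits growth by half.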 The source made the active and inactive calls. Rule as the data show it: active = GI50 up to about 1.1 µM and inactive = higher.

Some test systems named below: CAKI-1; HCC 2998; HL-60; LOX IMVI; M14; MDA-MB-435; PC-3; RPMI-8226; SF-268; SK-MEL-28; SK-MEL-2; SK-MEL-5; SNB-19; SR; SW-620; TK-10; U-251; MCF7; SNB-75.
Common to all, as to assay: inhibition of tumour cell growth, NCI panel, 48 h

Take `Cc1cccc2c(=O)c3cccc([C@@H](C)C(=O)O)c3oc12`: the GI50 in the test on CAKI-1, with HCC 2998, in the test with HL-60, with LOX IMVI, with M14 and in the test with MDA-MB-435 was > 100 µM (inactive) throughout. Also, the GI50 in the test with PC-3 is > 100 µM (inactive); with RPMI-8226 it was > 100 µM (inactive); in the test with SF-268, > 100 µM (inactive); in the test with SK-MEL-28, > 100 µM (inactive); in the test on SK-MEL-2, 80.7 µM (inactive); with SK-MEL-5, > 100 µM (inactive). Further, the GI50 in the test on SNB-19, in the test with SR, with SW-620, in the test on TK-10 and in the test on U-251 was > 100 µM (inactive) in each case.
Take `N#CC(c1cc2c(cc1Br)OCO2)N1CCOCC1` (stereo unspecified): the GI50 in the test on CAKI-1 is > 100 µM (inactive); in the test on HCC 2998 it was > 100 µM (inactive); in the test on HL-60, 3.33 µM (inactive); in the test with LOX IMVI, 24.5 µM (inactive); in the test on M14, 20.6 µM (inactive); with MCF7, 42.3 µM (inactive). The GI50 is 4.05 µM (inactive) in the test on MDA-MB-435; 15.3 µM (inactive) in the test with PC-3; 20.3 µM (inactive) with RPMI-8226; 73.8 µM (inactive) with SF-268; > 100 µM (inactive) in the test with SK-MEL-28; 26.1 µM (inactive) with SK-MEL-5. Further, the GI50 was 61.9 µM (inactive) with SNB-19; 30.1 µM (inactive) with SNB-75; 4.82 µM (inactive) in the test on SR; 9.04 µM (inactive) in the test on SW-620; 90.8 µM (inactive) in the test with TK-10.
For `C=C(OC1C(C)=C2C(C1OC(=O)CCCCCCC)C(C)(OC(C)=O)CC(OC(=O)CCC)C1(O)C2OC(=O)C1(C)O)/C(C)=C/C` (stereo unspecified), the GI50 in the test on CAKI-1 is 0.0125 µM (active); with HCC 2998, 0.0125 µM (active); in the test on LOX IMVI it was 0.0125 µM (active); with M14, < 0.0001 µM (active); in the test with MCF7 it was 0.0125 µM (active); in the test with MDA-MB-435, < 0.0001 µM (active). In addition, the GI50 in the test on PC-3 was < 0.0001 µM (active); in the test on RPMI-8226, 0.0125 µM (active); in the test on SF-268, 0.0125 µM (active); in the test on SK-MEL-28 it was 0.0125 µM (active); in the test with SK-MEL-2, 0.0125 µM (active); with SK-MEL-5, 0.0125 µM (active). For the same compound, the GI50 with SNB-19 is 0.0422 µM (active); with SNB-75 it was 0.0125 µM (active); in the test on SR it was 0.000145 µM (active); with SW-620 it was 0.0125 µM (active); with U-251, 0.0125 µM (active).
As for `COC(C/C(=C/CO[Si](C(C)C)(C(C)C)C(C)C)C(=O)N(COCC[Si](C)(C)C)c1ccccc1I)OC`, the GI50 in the test with CAKI-1 is > 100 µM (inactive); with HCC 2998, 43.9 µM (inactive); in the test with LOX IMVI, 14.7 µM (inactive); in the test on M14 it was 26.6 µM (inactive); in the test with MDA-MB-435 it was 5.53 µM (inactive); with PC-3 it was 28.4 µM (inactive). Besides, the GI50 in the test with RPMI-8226 was > 100 µM (inactive); in the test on SK-MEL-28, 14 µM (inactive); in the test with SK-MEL-2, 14.9 µM (inactive); in the test on SK-MEL-5, 20.1 µM (inactive); with SNB-19, 26.1 µM (inactive); in the test on SNB-75, > 100 µM (inactive). In addition, the GI50 in the test with SR was > 100 µM (inactive); with SW-620, 33.5 µM (inactive); in the test on TK-10, 63.1 µM (inactive); with U-251, 22.8 µM (inactive).
On to `Cc1ccc(S(=O)(=O)C(C#N)c2nc3ccccc3nc2N2CCOCC2)cc1` (stereo unspecified), for which the GI50 with CAKI-1 was 25.6 µM (inactive); with HCC 2998 it was 14.1 µM (inactive); with HL-60, > 10 µM (inactive); with LOX IMVI it was 16.6 µM (inactive); in the test with M14, 44.2 µM (inactive); with RPMI-8226, 22 µM (inactive). Besides, the GI50 is 28.6 µM (inactive) in the test on SF-268; 23.4 µM (inactive) in the test with SK-MEL-28; 33.1 µM (inactive) in the test with SK-MEL-2; 48.8 µM (inactive) in the test on SK-MEL-5; 28.6 µM (inactive) in the test with SNB-19; 22.8 µM (inactive) in the test on SNB-75. Also, the GI50 with SR is 28.1 µM (inactive); with SW-620, 26.9 µM (inactive); with TK-10, 56.6 µM (inactive); with U-251, 18.7 µM (inactive).
As for `N#CCCC1(CCC#N)CCCCCCCCC(CCC#N)(CCC#N)C(=O)C1=O`, the GI50 in the test with CAKI-1, in the test on HCC 2998, with HL-60, in the test on LOX IMVI, in the test with M14 and with MCF7 was > 100 µM (inactive) each time. The GI50 with MDA-MB-435, with PC-3, with SF-268, in the test on SK-MEL-28, with SK-MEL-2 and with SNB-19 was > 100 µM (inactive) each time. In addition, the GI50 is 63.8 µM (inactive) in the test with SNB-75; > 100 µM (inactive) in the test with SR; > 100 µM (inactive) in the test with SW-620; > 100 µM (inactive) with TK-10; > 100 µM (inactive) in the test with U-251.
For `C#CCn1c(=O)c2cccnc2n(CC#C)c1=O`, the GI50 in the test on CAKI-1, in the test with HCC 2998, in the test on HL-60, in the test on LOX IMVI, in the test with M14 and with RPMI-8226 was > 100 µM (inactive) throughout. In addition, the GI50 in the test on SF-268, in the test on SK-MEL-28, with SK-MEL-2, in the test on SK-MEL-5, in the test with SNB-19 and in the test on SNB-75 was > 100 µM (inactive) throughout. The GI50 in the test with SR, in the test on SW-620, in the test with TK-10 and with U-251 was > 100 µM (inactive) throughout.
Regarding `CCOC(=O)Nc1[nH]cc(-c2ccccc2)c1C#N`, the GI50 in the test on HL-60, in the test on LOX IMVI, with M14, in the test on MCF7, with MDA-MB-435 and in the test on PC-3 was > 100 µM (inactive) in each case. In addition, the GI50 with RPMI-8226, in the test on SF-268, in the test on SK-MEL-28, in the test on SK-MEL-2, with SK-MEL-5 and in the test on SNB-19 was > 100 µM (inactive) throughout. Moreover, the GI50 in the test with SNB-75, in the test with SR, in the test on SW-620, with TK-10 and in the test with U-251 was > 100 µM (inactive) in each case.
For the compound `CN(CCO)c1nc(=O)c2c(n1C1OC(CO)C(O)C(O)C1O)CCCC2` (stereo unspecified), the GI50 with CAKI-1, in the test with HCC 2998, with HL-60, with LOX IMVI, in the test with M14 and in the test on RPMI-8226 was > 100 µM (inactive) throughout. Also, the GI50 is > 100 µM (inactive) in the test on SF-268; > 100 µM (inactive) in the test on SK-MEL-28; > 100 µM (inactive) with SK-MEL-2; > 100 µM (inactive) in the test on SK-MEL-5; > 100 µM (inactive) with SNB-19; 62.5 µM (inactive) in the test with SNB-75. Moreover, the GI50 in the test on SR, in the test with SW-620, in the test with TK-10 and in the test with U-251 was > 100 µM (inactive) in each case.
Take `N=C(N)C1=C(O)NC(=O)N(C2CCCCC2)C1`: the GI50 in the test with CAKI-1, in the test with HCC 2998, in the test on HL-60, in the test with LOX IMVI, in the test on M14 and in the test with RPMI-8226 was > 100 µM (inactive) throughout. In addition, the GI50 in the test with SF-268, in the test on SK-MEL-28, in the test on SK-MEL-2, with SK-MEL-5, in the test on SNB-19 and in the test on SNB-75 was > 100 µM (inactive) throughout. The GI50 in the test with SR, in the test with SW-620, in the test with TK-10 and in the test on U-251 was > 100 µM (inactive) throughout.
As to `O=C(Cc1cccs1)N[C@@H]1C(=O)N2C(C(=O)OC(c3ccccc3)c3ccccc3)=C(CO)CS[C@H]12`, the GI50 in the test on CAKI-1 is > 100 µM (inactive); in the test with HCC 2998, 52.8 µM (inactive); in the test on HL-60 it was 46.6 µM (inactive); in the test on LOX IMVI, > 100 µM (inactive); in the test on M14 it was > 100 µM (inactive); with MCF7, > 100 µM (inactive). Also, the GI50 was 65.9 µM (inactive) with MDA-MB-435; > 100 µM (inactive) in the test with PC-3; 96.2 µM (inactive) with RPMI-8226; > 100 µM (inactive) with SK-MEL-2; > 100 µM (inactive) in the test on SK-MEL-5; 47.4 µM (inactive) in the test on SR. The GI50 in the test on SW-620, with TK-10 and in the test on U-251 was > 100 µM (inactive) throughout.
As to `c1cc(-c2cn3ccsc3n2)ccn1`, the GI50 in the test on CAKI-1 is > 91 µM (inactive); in the test with HCC 2998 it was > 100 µM (inactive); in the test with HL-60 it was > 44.9 µM (inactive); with LOX IMVI, > 61 µM (inactive); in the test on M14, > 100 µM (inactive); in the test with RPMI-8226, > 54.5 µM (inactive). In addition, the GI50 with SF-268 is > 100 µM (inactive); with SK-MEL-28, > 100 µM (inactive); in the test on SK-MEL-2, > 100 µM (inactive); in the test with SK-MEL-5, > 100 µM (inactive); in the test on SNB-19, > 100 µM (inactive); in the test on SNB-75 it was > 86.9 µM (inactive). Moreover, the GI50 in the test with SR is 65.9 µM (inactive); with SW-620 it was > 43.1 µM (inactive); in the test on TK-10, > 100 µM (inactive); with U-251, > 100 µM (inactive).
